Legend:
FGFR1 = target: T1, FGFR1 (Homo sapiens, UniProt P11362); test: Kinase binding assay (Kd), kinase-tagged T7 phage, affinity beads, qPCR; conditions: in vitro binding assay, 11-point 3-fold dilution series
T1 construct: made in house; host or cells: E. coli (BL21-derived) infected with T7 phage
Protocol: (§1) Kinase-tagged T7 phage strains were prepared in an E. coli host derived from the BL21 strain. E. coli were grown to log-phase and infected with T7 phage and incubated with shaking at 32° C. until lysis. The lysates were centrifuged and filtered to remove cell debris. Streptavidin-coated magnetic beads were treated with biotinylated small molecule ligands for 30 minutes at room temperature to generate affinity resins for kinase assays. The liganded beads were blocked with excess biotin and washed with blocking buffer SeaBlock (Pierce), 1% BSA, 0.05% Tween 20, 1 mM DTT to remove unbound ligand and to reduce non-specific binding. Binding reactions were assembled by combining kinases, liganded affinity beads, and test compounds in 1× binding buffer (20% SeaBlock, 0.17×PBS, 0.05% Tween 20, 6 mM DTT).
(§2) Test compounds were prepared as 111× stocks in 100% DMSO. Kds were determined using an 11-point 3-fold compound dilution series with three DMSO control points. All compounds for Kd measurements are distributed by acoustic transfer (non-contact dispensing) in 100% DMSO. The compounds were then diluted directly into the assays such that the final concentration of DMSO was 0.9%. All reactions performed in polypropylene 384-well plate. Each was a final volume of 0.02 ml. The assay plates were incubated at room temperature with shaking for 1 hour and the affinity beads were washed with wash buffer (1×PBS, 0.05% Tween 20). The beads were then re-suspended in elution buffer (1×PBS, 0.05% Tween 20, 0.5 μM non-biotinylated affinity ligand) and incubated at room temperature with shaking for 30 minutes. The kinase concentration in the eluates was measured by qPCR.
(§3) Binding constants were calculated with a standard dose-response curve using the Hill equation: […]
(§4) The Hill Slope was set to −1. Curves were fitted using a non-linear least square fit with the Levenberg-Marquardt algorithm.

FGFR2 = target: T2, FGFR2 (Homo sapiens, UniProt P21802); test: as above; conditions: in vitro binding assay, 11-point 3-fold dilution series
T2 construct: made in house; host or cells: E. coli (BL21-derived) infected with T7 phage
T2 sequence (P21802 22-821): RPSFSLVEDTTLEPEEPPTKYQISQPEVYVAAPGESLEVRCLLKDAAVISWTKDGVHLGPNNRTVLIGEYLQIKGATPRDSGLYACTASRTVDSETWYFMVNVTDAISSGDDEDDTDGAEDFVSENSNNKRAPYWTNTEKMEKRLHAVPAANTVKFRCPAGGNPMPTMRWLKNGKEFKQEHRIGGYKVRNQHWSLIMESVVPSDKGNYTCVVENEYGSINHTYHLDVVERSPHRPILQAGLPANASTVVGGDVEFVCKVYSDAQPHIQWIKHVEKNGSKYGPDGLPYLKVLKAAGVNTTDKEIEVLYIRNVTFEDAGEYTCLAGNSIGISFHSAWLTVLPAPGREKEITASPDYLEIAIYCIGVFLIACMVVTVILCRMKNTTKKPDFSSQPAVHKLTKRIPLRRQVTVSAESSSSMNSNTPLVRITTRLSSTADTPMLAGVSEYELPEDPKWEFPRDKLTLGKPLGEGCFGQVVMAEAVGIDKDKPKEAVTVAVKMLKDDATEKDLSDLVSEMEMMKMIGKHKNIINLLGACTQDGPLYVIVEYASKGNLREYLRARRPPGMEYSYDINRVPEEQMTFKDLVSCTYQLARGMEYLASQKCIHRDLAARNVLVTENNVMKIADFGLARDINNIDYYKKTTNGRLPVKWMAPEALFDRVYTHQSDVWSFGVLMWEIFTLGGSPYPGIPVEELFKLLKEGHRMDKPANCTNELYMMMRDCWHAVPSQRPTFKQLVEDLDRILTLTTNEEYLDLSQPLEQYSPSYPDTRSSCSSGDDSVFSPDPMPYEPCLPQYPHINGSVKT
Protocol: as §1, §2, §3, §4

FGFR3 = target: T3, FGFR3 (Homo sapiens, UniProt P22607); test: as above; conditions: in vitro binding assay, 11-point 3-fold dilution series
T3 construct: made in house; host or cells: E. coli (BL21-derived) infected with T7 phage
T3 sequence (P22607 23-806): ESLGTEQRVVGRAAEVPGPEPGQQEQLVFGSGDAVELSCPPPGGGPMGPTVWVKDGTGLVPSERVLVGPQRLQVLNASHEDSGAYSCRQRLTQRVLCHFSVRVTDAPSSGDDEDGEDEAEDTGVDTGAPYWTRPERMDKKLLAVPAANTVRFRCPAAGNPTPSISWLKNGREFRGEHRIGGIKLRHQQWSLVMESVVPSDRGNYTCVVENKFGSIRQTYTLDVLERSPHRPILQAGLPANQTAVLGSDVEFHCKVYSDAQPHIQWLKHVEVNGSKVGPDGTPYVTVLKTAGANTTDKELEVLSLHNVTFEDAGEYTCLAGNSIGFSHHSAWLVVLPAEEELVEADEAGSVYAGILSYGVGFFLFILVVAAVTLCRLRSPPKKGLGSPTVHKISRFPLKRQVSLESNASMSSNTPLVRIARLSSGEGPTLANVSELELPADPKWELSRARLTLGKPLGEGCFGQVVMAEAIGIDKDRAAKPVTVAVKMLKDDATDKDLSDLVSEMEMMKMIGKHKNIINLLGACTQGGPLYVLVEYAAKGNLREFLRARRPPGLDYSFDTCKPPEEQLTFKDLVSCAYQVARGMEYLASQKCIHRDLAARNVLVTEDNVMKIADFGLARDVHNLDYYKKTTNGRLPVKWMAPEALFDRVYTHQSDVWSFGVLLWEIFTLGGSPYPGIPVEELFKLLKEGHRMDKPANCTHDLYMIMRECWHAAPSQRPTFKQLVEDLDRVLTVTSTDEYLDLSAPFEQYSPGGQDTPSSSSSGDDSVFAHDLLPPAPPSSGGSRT
Protocol: as §1, §2, §3, §4

FGFR3 (V555M) = target: T4, FGFR3 (V555M) (Homo sapiens, UniProt P22607, V555M); test: as above; conditions: in vitro binding assay, 11-point 3-fold dilution series
T4 construct: made in house; host or cells: E. coli (BL21-derived) infected with T7 phage
T4 sequence (P22607 23-806 V555M): as the sequence (P22607 23-806) above, with V533M counted along it
Protocol: as §1, §2, §3, §4

FGFR4 = target: T5, FGFR4 (Homo sapiens, UniProt P22455); test: as above; conditions: in vitro binding assay, 11-point 3-fold dilution series
T5 construct: made in house; host or cells: E. coli (BL21-derived) infected with T7 phage
T5 sequence (P22455 22-802): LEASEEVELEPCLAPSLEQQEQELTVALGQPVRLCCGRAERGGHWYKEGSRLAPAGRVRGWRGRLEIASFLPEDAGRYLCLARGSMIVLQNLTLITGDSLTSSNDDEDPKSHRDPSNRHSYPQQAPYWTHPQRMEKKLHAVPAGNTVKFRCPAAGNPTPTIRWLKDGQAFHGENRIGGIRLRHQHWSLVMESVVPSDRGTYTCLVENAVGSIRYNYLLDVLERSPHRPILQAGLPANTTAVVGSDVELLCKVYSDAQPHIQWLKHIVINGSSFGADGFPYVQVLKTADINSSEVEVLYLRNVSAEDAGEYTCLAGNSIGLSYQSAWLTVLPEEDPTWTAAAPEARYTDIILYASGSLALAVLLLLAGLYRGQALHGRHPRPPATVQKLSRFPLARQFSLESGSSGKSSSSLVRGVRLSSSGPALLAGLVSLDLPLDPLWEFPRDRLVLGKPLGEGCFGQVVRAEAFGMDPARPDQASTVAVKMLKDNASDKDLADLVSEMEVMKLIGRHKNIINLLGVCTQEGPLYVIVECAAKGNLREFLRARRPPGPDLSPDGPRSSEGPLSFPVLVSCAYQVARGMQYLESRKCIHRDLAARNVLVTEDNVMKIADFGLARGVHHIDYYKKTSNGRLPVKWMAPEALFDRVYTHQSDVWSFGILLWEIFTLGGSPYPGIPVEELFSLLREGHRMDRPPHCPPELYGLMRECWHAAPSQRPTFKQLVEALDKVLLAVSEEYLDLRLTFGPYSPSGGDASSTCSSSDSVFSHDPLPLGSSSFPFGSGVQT
Protocol: as §1, §2, §3, §4

Ba/F3 BCR-FGFR1 = target: T6, Ba/F3 BCR-FGFR1 (Homo sapiens, UniProt P11362); test: Ba/F3 cell viability assay (CellTiter-Glo 2.0); format: cell-based; conditions: Ba/F3 cell data, BCR-FGFR1 fusion, 48 hours
T6 construct: BCR (fusion partner); host or cells: Ba/F3; the other entry of the earlier key: BCR (P11274, Breakpoint cluster region protein)
T6 sequence (P11362 478-767 limits assumed): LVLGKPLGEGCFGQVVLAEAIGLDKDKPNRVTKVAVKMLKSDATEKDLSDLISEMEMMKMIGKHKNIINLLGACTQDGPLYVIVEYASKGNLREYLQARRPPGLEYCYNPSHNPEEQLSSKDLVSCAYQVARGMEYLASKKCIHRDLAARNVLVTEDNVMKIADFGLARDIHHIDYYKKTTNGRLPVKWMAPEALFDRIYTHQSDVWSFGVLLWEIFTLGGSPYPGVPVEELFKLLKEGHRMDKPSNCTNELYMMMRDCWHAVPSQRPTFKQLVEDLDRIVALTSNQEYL

Ba/F3 BCR-FGFR2 = target: T7, Ba/F3 BCR-FGFR2 (Homo sapiens, UniProt P21802); test: Ba/F3 cell viability assay (CellTiter-Glo 2.0); format: cell-based; conditions: Ba/F3 cell data, BCR-FGFR2 fusion, 48 hours
T7 construct: BCR (fusion partner); host or cells: Ba/F3; the other entry of the earlier key: BCR (P11274, Breakpoint cluster region protein)
T7 sequence (P21802 481-770 limits assumed): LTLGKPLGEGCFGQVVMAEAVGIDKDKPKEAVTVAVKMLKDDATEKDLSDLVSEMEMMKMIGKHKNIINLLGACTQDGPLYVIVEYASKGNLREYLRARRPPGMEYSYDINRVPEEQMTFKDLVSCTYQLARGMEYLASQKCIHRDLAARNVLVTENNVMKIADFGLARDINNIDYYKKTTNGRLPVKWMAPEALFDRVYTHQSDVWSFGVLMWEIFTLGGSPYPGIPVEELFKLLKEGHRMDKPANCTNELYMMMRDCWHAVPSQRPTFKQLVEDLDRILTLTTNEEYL

Ba/F3 FGFR3-BAIAP2L1 = target: T8, Ba/F3 FGFR3-BAIAP2L1 (Homo sapiens, UniProt P22607); test: Ba/F3 cell viability assay (CellTiter-Glo 2.0); format: cell-based; conditions: Ba/F3 cell data, FGFR3-BAIAP2L1 fusion, 48 hours
T8 construct: BAIAP2L1 (fusion partner, Q9UHR4 if human); host or cells: Ba/F3; the other entry of the earlier key: BAIAP2L1 (Q9UHR4, BAR/IMD domain-containing adapter protein 2-like 1)
T8 sequence (P22607 397-758 limits assumed): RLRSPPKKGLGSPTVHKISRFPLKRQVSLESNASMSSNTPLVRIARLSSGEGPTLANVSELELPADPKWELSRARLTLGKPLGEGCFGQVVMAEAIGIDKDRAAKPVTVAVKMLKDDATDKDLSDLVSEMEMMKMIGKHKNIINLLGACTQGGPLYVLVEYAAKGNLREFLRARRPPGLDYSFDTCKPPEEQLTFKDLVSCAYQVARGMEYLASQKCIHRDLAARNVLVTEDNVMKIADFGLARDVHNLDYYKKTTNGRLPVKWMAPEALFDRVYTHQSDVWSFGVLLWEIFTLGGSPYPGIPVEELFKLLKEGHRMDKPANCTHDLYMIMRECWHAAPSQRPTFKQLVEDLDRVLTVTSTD

Ba/F3 ETV5-FGFR4 = target: T9, Ba/F3 ETV5-FGFR4 (Homo sapiens, UniProt P22455); test: Ba/F3 cell viability assay (CellTiter-Glo 2.0); format: cell-based; conditions: Ba/F3 cell data, ETV5-FGFR4 fusion, 48 hours
T9 construct: host or cells: Ba/F3; the other entry of the earlier key: ETV5 (P41161, ETS translocation variant 5)
T9 sequence (P22455 467-755 limits assumed): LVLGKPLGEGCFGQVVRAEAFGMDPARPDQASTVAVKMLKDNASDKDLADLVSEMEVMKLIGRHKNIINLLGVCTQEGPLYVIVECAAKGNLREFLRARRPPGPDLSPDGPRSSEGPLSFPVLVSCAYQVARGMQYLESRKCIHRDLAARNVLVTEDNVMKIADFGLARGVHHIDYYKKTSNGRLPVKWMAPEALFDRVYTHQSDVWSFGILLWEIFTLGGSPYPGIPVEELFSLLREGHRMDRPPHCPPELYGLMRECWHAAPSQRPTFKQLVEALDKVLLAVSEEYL
Description: Experimental Purpose: Recombinant kinase fusions are transduced into parental Ba/F3, which becomes dependent upon this constitutive kinase activity for IL3-independent survival. Inhibition of kinase activity leads to cell death, which is monitored using CellTiter-Glo® 2.0 (Promega) which measures intracellular ATP concentration that in turn serves as a marker for viability. BCR-FGFR1 Ba/F3, BCR-FGFR2 and FGFR3-BAIAP2L1 Ba/F3 were obtained from Advanced Cellular Dynamics (Seattle, WA). ETV6-FGFR4 was obtained from Kyinno (Waltham, MA).
Cell Viability Assay Procedure: Cell Titer-Glo® 2.0 Luminescent cell viability assay reagent was purchased from Promega (Madison, WI). Ba/F3 cell lines were cultured in RPMI1640 media supplemented with 10% fetal bovine serum. Cultures were maintained at 37° C. in a humidified atmosphere of 5% CO2 and 95% air.
Cells were plated in 96-well clear bottom/white plates (Corning #3903) at 10,000 cells/well in 100 μl of media, incubated overnight. The next day, test compound DMSO stock solutions were made at 10 mM and 2 μM final concentration. Compounds were then added to cells in a 9-dose, 10-fold dilution series starting at 30 μM with an HP 300e Digital Dispenser (each dose was applied in triplicate). DMSO was backfilled to each well up to 301 nL total volume of test compound+DMSO, and a total of 301 nL DMSO was added to a control/no test compound well in triplicate. The cells in cell culture plates were incubated with the compounds at 37° C. and 5% CO2 for 48 hours. Then 50 μl of Cell Titer Glo 2.0 reagent was added to each well of the cell culture plates. The contents were covered from light and mixed on an orbital shaker at room temperature for 10 min. Luminescence was recorded by a Synergy H1 Microplate Reader (Biotek, Winooski, VT). Cells were assessed as a percentage of DMSO only treated control cells. Curves were plotted and IC50 values were calculated using the GraphPad Prism 8 program based on a sigmoidal dose-response equation (4 parameter).

KG-1 = test: Cancer cell line cell viability assay (CellTiter-Glo 2.0); format: cell-based; conditions: Homo sapiens; KG-1 (FGFR1-fusion) cell viability, 72 hours
Description: (§5) Experimental Purpose: To detect the change of intracellular ATP by Cell Titer-Glo® and to evaluate the inhibitory effect of the compounds on cancer cell lines by determining the in vitro IC50 value of the compounds.
(§6) Cell Titer-Glo® 2.0 Luminescent cell viability assay reagent was purchased from Promega (Madison, WI). RT112/84 and KG-1 cell lines were purchased from American Type Culture Collection (Manassas, VA). UM-UC-14 cell line was purchased from Sigma (St. Louis, MO). RT112/84, UM-UC-14, and KG-1 cells were cultured in RPMI1640 media supplemented with 10% fetal bovine serum. Cultures were maintained at 37° C. in a humidified atmosphere of 5% CO2 and 95% air.
(§7) Cell Viability Assay Procedure: Cells were plated in 96-well clear bottom/white plates (Corning #3903) at 10,000 cells/well in 100 μl of media, incubated overnight. The next day, test compound DMSO stock solutions were made at 10 mM and 2 μM final concentration.
(§8) Compounds were then added to cells in a 9-dose, […] dilution series starting at 30 μM with an HP 300e Digital Dispenser (each dose was applied in triplicate). DMSO was backfilled to each well up to 301 nL total volume of test compound+DMSO, and a total of 301 nL DMSO was added to a control/no test compound well in triplicate. The cells in cell culture plates were incubated with the compounds at 37° C. and 5% CO2 for 72 hours. Then 50 μl of Cell Titer Glo 2.0 reagent was added to each well of the cell culture plates. The contents were covered from light and mixed on an orbital shaker at room temperature for 10 min.
(§9) Luminescence was recorded by a Synergy H1 Microplate Reader (Biotek, Winooski, VT). Cells were assessed as a percentage of DMSO only treated control cells. Curves were plotted and IC50 values were calculated using the GraphPad Prism 8 program based on a sigmoidal dose-response equation (4 parameter).

RT112/84 = test: as above; format: cell-based; conditions: Homo sapiens; RT112/84 (FGFR3-fusion) cell viability, 72 hours
Description: as §5, §6, §7, §8, §9

KatoIIII = test: as above; format: cell-based; conditions: 72 hours

T1 sequence (P11362 22-822): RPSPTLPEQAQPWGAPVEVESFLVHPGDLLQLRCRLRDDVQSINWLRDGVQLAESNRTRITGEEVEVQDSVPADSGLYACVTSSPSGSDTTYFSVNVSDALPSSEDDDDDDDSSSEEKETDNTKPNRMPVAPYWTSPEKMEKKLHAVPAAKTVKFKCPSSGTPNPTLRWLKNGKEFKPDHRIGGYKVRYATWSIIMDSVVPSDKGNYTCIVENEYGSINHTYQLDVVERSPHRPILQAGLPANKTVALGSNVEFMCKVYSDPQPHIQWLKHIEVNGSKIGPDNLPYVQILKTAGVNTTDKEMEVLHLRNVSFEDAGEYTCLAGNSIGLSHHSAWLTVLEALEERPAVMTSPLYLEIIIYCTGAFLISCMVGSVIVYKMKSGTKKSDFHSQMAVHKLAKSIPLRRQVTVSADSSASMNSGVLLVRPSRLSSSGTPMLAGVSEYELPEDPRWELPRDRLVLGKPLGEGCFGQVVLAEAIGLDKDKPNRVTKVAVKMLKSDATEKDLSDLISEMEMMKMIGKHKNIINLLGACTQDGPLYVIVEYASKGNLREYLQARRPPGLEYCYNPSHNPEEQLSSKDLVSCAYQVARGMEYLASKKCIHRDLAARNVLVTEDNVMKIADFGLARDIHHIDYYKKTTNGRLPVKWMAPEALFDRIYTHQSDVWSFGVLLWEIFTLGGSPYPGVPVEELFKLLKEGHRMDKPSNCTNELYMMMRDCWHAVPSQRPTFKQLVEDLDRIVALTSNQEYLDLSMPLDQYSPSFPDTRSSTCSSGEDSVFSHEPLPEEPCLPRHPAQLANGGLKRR

C=CC(=O)N1CC(C(=O)N2CCC(n3nnc(-c4cc(O[C@H](CO)c5ccccn5)c5c(C#N)cnn5c4)c3C)CC2)C1 (single isomer, unassigned) [Example 18]
Kd (FGFR1): 0.1 to 100 nM
Kd (FGFR2): 0.1 to 100 nM
Kd (FGFR3): 0.1 to 100 nM
Kd (FGFR3 (V555M)): 0.1 to 100 nM
Kd (FGFR4): 0.1 to 100 nM
Kd (Ba/F3 BCR-FGFR1): ≥ 1000 nM
Kd (Ba/F3 BCR-FGFR2): ≥ 1000 nM
Kd (Ba/F3 FGFR3-BAIAP2L1): 250 to 1000 nM
Kd (Ba/F3 ETV5-FGFR4): ≥ 1000 nM
IC50 (KG-1): ≥ 1000 nM
IC50 (RT112/84): ≥ 1000 nM
IC50 (KatoIIII): ≥ 1000 nM

C=CC(=O)N1CC(F)(C(=O)N2CCC(n3nnc(-c4cc(O[C@H](CO)c5ccccn5)c5c(C#N)cnn5c4)c3C)CC2)C1 (single isomer, unassigned) [Example 20]
Kd (FGFR1): 0.1 to 100 nM
Kd (FGFR2): 0.1 to 100 nM
Kd (FGFR3): 0.1 to 100 nM
Kd (FGFR3 (V555M)): 0.1 to 100 nM
Kd (FGFR4): 0.1 to 100 nM
Kd (Ba/F3 BCR-FGFR1): ≥ 1000 nM
Kd (Ba/F3 BCR-FGFR2): ≥ 1000 nM
Kd (Ba/F3 FGFR3-BAIAP2L1): 0.1 to 100 nM
Kd (Ba/F3 ETV5-FGFR4): ≥ 1000 nM
IC50 (KG-1): 250 to 1000 nM
IC50 (RT112/84): 100 to 250 nM
IC50 (KatoIIII): ≥ 1000 nM

C=CC(=O)N1CCC(n2ncc(-c3cc(O[C@H](CO)c4ccc(F)cn4)c4c(C#N)cnn4c3)c2C)CC1 [Example 1, 4-[(1S)-1-(5-fluoro-2-pyridyl)-2-hydroxy-ethoxy]-6-[5-methyl-1-(1-prop-2-enoyl-4-piperidyl)pyrazol-4-yl]pyrazolo[1,5-a]pyridine-3-carbonitrile]
Kd (FGFR1): 100 to 250 nM
Kd (FGFR2): 0.1 to 100 nM
Kd (FGFR3): 0.1 to 100 nM
Kd (FGFR3 (V555M)): 0.1 to 100 nM
Kd (FGFR4): 100 to 250 nM
Kd (Ba/F3 BCR-FGFR1): 250 to 1000 nM
Kd (Ba/F3 BCR-FGFR2): 100 to 250 nM
Kd (Ba/F3 FGFR3-BAIAP2L1): 0.1 to 100 nM
Kd (Ba/F3 ETV5-FGFR4): 250 to 1000 nM
IC50 (KG-1): ≥ 1000 nM
IC50 (RT112/84): 100 to 250 nM
IC50 (KatoIIII): 100 to 250 nM

C=CC(=O)N1CCC(n2ncc(-c3cc(O[C@@H](CO)c4ccc(F)cn4)c4c(C#N)cnn4c3)c2C)CC1 [Example 2, 4-[(1R)-1-(5-fluoro-2-pyridyl)-2-hydroxy-ethoxy]-6-[5-methyl-1-(1-prop-2-enoyl-4-piperidyl)pyrazol-4-yl]pyrazolo[1,5-a]pyridine-3-carbonitrile]
Kd (FGFR1): 250 to 1000 nM
Kd (FGFR2): 250 to 1000 nM
Kd (FGFR3): 250 to 1000 nM
Kd (FGFR3 (V555M)): 250 to 1000 nM
Kd (FGFR4): ≥ 1000 nM
Kd (Ba/F3 BCR-FGFR1): ≥ 1000 nM
Kd (Ba/F3 BCR-FGFR2): ≥ 1000 nM
Kd (Ba/F3 FGFR3-BAIAP2L1): 250 to 1000 nM
Kd (Ba/F3 ETV5-FGFR4): ≥ 1000 nM
IC50 (KG-1): ≥ 1000 nM
IC50 (RT112/84): ≥ 1000 nM
IC50 (KatoIIII): 250 to 1000 nM

C=CC(=O)N1CCC2(CC1)CC(n1nnc(-c3cc(O[C@H](C)c4ccccn4)c4c(C#N)cnn4c3)c1C)C2 [Example 3, (R)-6-(1-(7-acryloyl-7-azaspiro[3.5]nonan-2-yl)-5-methyl-1H-1,2,3-triazol-4-yl)-4-(1-(pyridin-2-yl)ethoxy)pyrazolo[1,5-a]pyridine-3-carbonitrile]
Kd (FGFR1): 0.1 to 100 nM
Kd (FGFR3): 0.1 to 100 nM
Kd (Ba/F3 BCR-FGFR1): 0.1 to 100 nM
Kd (Ba/F3 BCR-FGFR2): 0.1 to 100 nM
Kd (Ba/F3 FGFR3-BAIAP2L1): 0.1 to 100 nM
Kd (Ba/F3 ETV5-FGFR4): 100 to 250 nM
IC50 (KG-1): 0.1 to 100 nM
IC50 (RT112/84): 0.1 to 100 nM
IC50 (KatoIIII): 0.1 to 100 nM

CCC(=O)N1CCC2(CC1)CC(n1cc(-c3cc(O[C@H](CO)c4ccc(F)cn4)c4c(C#N)cnn4c3)cn1)C2 [Example 28, (S)-4-(1-(5-fluoropyridin-2-yl)-2-hydroxyethoxy)-6-(1-(7-propionyl-7-azaspiro[3.5]nonan-2-yl)-1H-pyrazol-4-yl)pyrazolo[1,5-a]pyridine-3-carbonitrile]
Kd (FGFR1): 0.1 to 100 nM
Kd (FGFR2): 0.1 to 100 nM
Kd (FGFR3): 0.1 to 100 nM
Kd (FGFR3 (V555M)): 0.1 to 100 nM
Kd (FGFR4): 0.1 to 100 nM
Kd (Ba/F3 BCR-FGFR1): 100 to 250 nM
Kd (Ba/F3 BCR-FGFR2): 0.1 to 100 nM
Kd (Ba/F3 FGFR3-BAIAP2L1): 0.1 to 100 nM
Kd (Ba/F3 ETV5-FGFR4): 100 to 250 nM

Source: US20260209223A1, “FGFR3 INHIBITOR COMPOUNDS” (TYRA BIOSCIENCES, INC., priority 2022, published 2026)
